Test results as given in patent publication US10004722B2, “Method for treating hepatic encephalopathy or a disease associated with free radical mediate stress and oxidative stress with novel functionalized 1,3-benzene diols” (KANNALIFE SCIENCES, INC., priority 2014, dated 2018).
pEC50: −log10 of the molar value. Several values for one entry are separate records, joined by “and”; a condition that tells them apart may be missing. Equal entries are not always repeated. Where two headings read alike, the source gives them in different places.

Assays:
[1] = system: hippocampal cultures; assay: Neuroprotection from 300 μM ammonium acetate, CFDA assay; type: cell-based; details: Rattus norvegicus, read-out: NP from AmAc CFDA EC50
Source text: (§1) Cell cultures: All compounds were screened with dissociated hippocampal cultures derived from embryonic day 18 rats as the primary test system. With this preparation, primary neurons were used to test for toxicity as well as neuroprotection in a highly relevant experimental system to hepatic encephalopathy (HE). In brief, hippocampal tissue was obtained commercially through Brain Bits (Springfield, Ill.) and cultures prepared as previously described (Brewer, 1995). The hippocampal neurons were platted at low density (10,000 cell/well) in a 96-well format and maintained in serum-free medium consisting of Neurobasal Medium supplemented with B27 and GlutaMAX (Gibco). Pre-coated poly-D-lysine coated plates will be used because of the adherence and survival of hippocampal neurons and glia on this matrix support.
(§2) The central objective of all neuroprotective assays was their relevancy to oxidative stress related to HE and other or diseases associated with oxidative stress in general. These studies use phenotypic assays of neuroprotection because the molecular target(s) mediating the action of cannabidiol-like protecting substances is unknown. Both the amount of ethanol and ammonia used in the assays, as well as the time of treatment and duration of the experiment, were designed to be relevant to HE (Ong et al, 2003). […]

[2] = system: hippocampal cultures; assay: Neuroprotection from 30 mM ethanol plus 300 μM ammonium acetate, propidium iodide (PI) assay; type: cell-based; details: Rattus norvegicus, read-out: NP from ethanol + AmAc PI EC50
Source text: as §1, §2

[3] = in vivo; set-up: species or system CD1 mice
Procedure: (§3) The pharmacokinetic profile of compounds of the disclosure are determined in CD1 mice by administering IV and PO doses of the compounds of the disclosure to the CD1 mice. Plasma samples are drawn at 0.083, 0.25, 0.5, 1.0, 2.0, 4.0, 8.0, and 24 hours to determine the plasma concentration of the compounds of the disclosure. Brain and CSF samples were collected at 0.25 hours, 2 hours, and 8 hours post dosing. IV doses were prepared as solutions in 5% Dimethylacetamide (DMAC), 5% Solutol HS 15 and 90% Saline at 0.4 mg/mL PO doses were prepared as solutions in 5% Dimethylacetamide (DMAC), 5% Solutol HS 15 and 90% Saline at 1 mg/mL. Experimental results for exemplary compounds of the disclosure are described in tables 6-9 and FIGS. 1 and 2.

[4] = Pharmacokinetic profile after an IV dose in CD1 mice; type: in vivo
Procedure: as §3

[5] = system: hippocampal cultures; assay: cells; type: cell-based; details: Rattus norvegicus, 300 μM ammonium acetate, propidium iodide, read-out: NP from AmAc PI EC50
Source text: as §1, §2

[6] = system: hippocampal cultures; assay: cells; type: cell-based; details: Rattus norvegicus, 30 mM ethanol, propidium iodide, read-out: NP from Ethanol PI EC50
Source text: Cell cultures: All compounds were screened with dissociated hippocampal cultures derived from embryonic day 18 rats as the primary test system. With this preparation, primary neurons were used to test for toxicity as well as neuroprotection in a highly relevant experimental system to hepatic encephalopathy (HE). In brief, hippocampal tissue was obtained commercially through Brain Bits (Springfield, Ill.) and cultures prepared as previously described (Brewer, 1995). The hippocampal neurons were platted at low density (10,000 cell/well) in a 96-well format and maintained in serum-free medium consisting of Neurobasal Medium supplemented with B27 and GlutaMAX (Gibco). […]
These studies use phenotypic assays of neuroprotection because the molecular target(s) mediating the action of cannabidiol-like protecting substances is unknown. […] Further, all time parameters employed in these studies were empirically determined to be within the limits of reversible toxic events after treatment with cannabidiol (Hamelink et al., 2005) and cannabidiol-like substances, yet using amounts of ethanol (30 mM) and ammonia (300 μM ammonium acetate) that were relevant to the disease. […]
Carboxyfluorescein (CFDA) was used a vital stain for all neuroprotection studies. […] The test agents were evaluated with the two assays during a 5 hour test period. […]

[7] = system: hippocampal cultures; assay: Neuroprotection from 30 mM ethanol, CFDA assay; type: cell-based; details: Rattus norvegicus, read-out: NP from Ethanol CFDA EC50
Procedure: Cell cultures: All compounds were screened with dissociated hippocampal cultures derived from embryonic day 18 rats as the primary test system. […] The hippocampal neurons were platted at low density (10,000 cell/well) in a 96-well format and maintained in serum-free medium consisting of Neurobasal Medium supplemented with B27 and GlutaMAX (Gibco).
The effective working concentration of ethanol that was empirically determined to produce toxicity in the hippocampal cultures was 30 mM.
Carboxyfluorescein (CFDA) was used a vital stain for all neuroprotection studies. With the use of the CytoFluor fluorimeter, the CFDA assay was employed to assess the viability of neurons. […] Cultures were treated within the period of culture vulnerability for toxins relevant to HE: between days 11 and 22 after cell plating. The test agents were evaluated with the two assays during a 5 hour test period. For all assays, a 96-well format was used. […] Cultures were given a complete change of medium prior to the initiation of the treatment period.
A compound of the disclosure was added to the hippocampal cultures for a five hour period. Compounds were tested from 10 nM to 100 μM. At the conclusion of the test period, the cultures were tested for the amount of neuronal viability by the CFDA method. […]

[8] = system: hippocampal cultures; assay: Neuroprotection from 30 mM ethanol plus 300 μM ammonium acetate, CFDA assay; type: cell-based; details: Rattus norvegicus, read-out: NP from ethanol + AmAc CFDA EC50
Source text: as §1, §2

[9] = CD1, mouse, in vivo, po, 10 mg/kg
[10] = PO 10 mg/kg, CD1 mice, 0.25 hr, listed as KLS-13019, 10 mg/kg
[11] = PO 10 mg/kg, CD1 mice, 2 hr, listed as KLS-13019, 10 mg/kg
[12] = CD1, mouse, in vivo, iv, 2 mg/kg

C=C(C)[C@@H]1CCC(C)=C[C@H]1c1c(O)cc(CC2CN(C(C)=O)C2)cc1O [Example 2, 1-(3-(3,5-dihydroxy-4-((1R,6R)-3-methyl-6-(prop-1-en-2-yl)cyclohex-2-enyl)benzyl)azetidin-1-yl)ethanone]
pEC50 [1]: 7.21 | pEC50 [2]: 6.69 | Tmax [3, 9]: 0.25 h | half-life [3, 9]: 5.31 h | concentration at 0.25 h ([3]; CD1, mouse, in vivo, po, 10 mg/kg, PO 10 mg/kg, CD1 mice, 0.25 hr, read-out: Brain concentration, mean): 469 ng/mL | Kp at 0.25 h ([3]; CD1, mouse, in vivo, po, 10 mg/kg, PO 10 mg/kg, CD1 mice, 0.25 hr, read-out: Brain/Plasma (%), individual): 0.801 | Kp at 0.25 h ([3]; CD1, mouse, in vivo, po, 10 mg/kg, PO 10 mg/kg, CD1 mice, 0.25 hr, read-out: Brain/Plasma (%), mean): 0.821 | concentration at 0.25 h ([3]; CD1, mouse, in vivo, po, 10 mg/kg, PO 10 mg/kg, CD1 mice, 0.25 hr, read-out: CSF concentration, mean): 8.95 ng/mL | Kp at 0.25 h ([3]; CD1, mouse, in vivo, po, 10 mg/kg, PO 10 mg/kg, CD1 mice, 0.25 hr, read-out: CSF/Plasma (%), individual): 0.0179 | Kp at 0.25 h ([3]; CD1, mouse, in vivo, po, 10 mg/kg, PO 10 mg/kg, CD1 mice, 0.25 hr, read-out: CSF/Plasma (%), mean): 0.0155 | concentration at 2 h ([3]; CD1, mouse, in vivo, po, 10 mg/kg, PO 10 mg/kg, CD1 mice, 2 hr, read-out: Brain concentration, mean): 126 ng/mL | Kp at 2 h ([3]; CD1, mouse, in vivo, po, 10 mg/kg, PO 10 mg/kg, CD1 mice, 2 hr, read-out: Brain/Plasma (%), individual): 1.15 | Kp at 2 h ([3]; CD1, mouse, in vivo, po, 10 mg/kg, PO 10 mg/kg, CD1 mice, 2 hr, read-out: Brain/Plasma (%), mean): 1.17 | concentration at 2 h ([3]; CD1, mouse, in vivo, po, 10 mg/kg, PO 10 mg/kg, CD1 mice, 2 hr, read-out: CSF concentration, mean): 2.65 ng/mL | Kp at 2 h ([3]; CD1, mouse, in vivo, po, 10 mg/kg, PO 10 mg/kg, CD1 mice, 2 hr, read-out: CSF/Plasma (%), individual): 0.0255 | Kp at 2 h ([3]; CD1, mouse, in vivo, po, 10 mg/kg, PO 10 mg/kg, CD1 mice, 2 hr, read-out: CSF/Plasma (%), mean): 0.0291 | F ([3]; CD1, mouse, po, 10 mg/kg): 67.1% | Tmax ([3]; CD1, mouse, po, 10 mg/kg): 0.25 h | half-life ([3]; CD1, mouse, po, 10 mg/kg): 5.36 h | Brain/CSF, mean ([3]; PO 10 mg/kg, CD1 mice, 0.25 hr): 53.5 | Brain/CSF, individual [3, 10]: 44.7 and 61.3 and 54.6 | Brain/Plasma (%), individual [3, 10]: 87.4% and 78.7% | CSF/Plasma (%), individual [3, 10]: 1.42% and 1.44% | Brain/CSF, mean ([3]; PO 10 mg/kg, CD1 mice, 2 hr): 43.7 | Brain/CSF, individual [3, 11]: 45.0 and 60.3 and 25.9 | Brain/Plasma (%), individual [3, 11]: 136% and 101% | CSF concentration, individual [3, 11]: 3.60 ng/mL and 3.00 ng/mL and 1.35 ng/mL | CSF/Plasma (%), individual [3, 11]: 2.26% and 3.91% | Brain concentration, individual ([3]; PO 10 mg/kg, CD1 mice, 8 hr): BQL | Brain concentration, mean ([3]; PO 10 mg/kg, CD1 mice, 8 hr): BQL | Brain/Plasma (%), mean ([3]; PO 10 mg/kg, CD1 mice, 8 hr): BQL | CSF concentration, individual ([3]; PO 10 mg/kg, CD1 mice, 8 hr): BQL | CSF concentration, mean ([3]; PO 10 mg/kg, CD1 mice, 8 hr): BQL | CSF/Plasma (%), mean ([3]; PO 10 mg/kg, CD1 mice, 8 hr): BQL | AUC(0-inf) [4, 12]: 440 ng·h/mL | AUC(0-t) [4, 12]: 431 ng·h/mL | MRT inf [4, 12]: 0.702 h | Vd [4, 12]: 3.19 L/kg | clearance [4, 12]: 75.8 mL/min/kg | half-life ([4]; mouse, plasma, IV 2 mg/kg, CD1 mice, read-out: Terminal t1/2 (converted)): 3.24 h | pEC50 [5]: 7.42 | pEC50 [6]: 7.34 | pEC50 [7]: 6.76 | pEC50 [8]: 6.90

C=C(C)[C@@H]1CCC(C)=C[C@H]1c1c(O)cc(CC2CN(C(=O)OCC)C2)cc1O [Example 3, ethyl 3-(3,5-dihydroxy-4-((1R,6R)-3-methyl-6-(prop-1-en-2-yl)cyclohex-2-enyl)benzyl)azetidine-1-carboxylate]
pEC50 [1]: 6.98 | pEC50 [2]: 7.21 | pEC50 [5]: 7.30 | pEC50 [6]: 7.70 | pEC50 [7]: 7.52 | pEC50 [8]: 7.06
